{"source": "paper PMC9661477", "about": "“New Dual P-Glycoprotein (P-gp) and Human Carbonic Anhydrase XII (hCA XII) Inhibitors as Multidrug Resistance (MDR) Reversers in Cancer Cells” (Journal of Medicinal Chemistry, 2022)", "note": "Where a name gives a salt, the structure may show the parent alone."}
{"units": {"melting point": "°C"}}
{"compound": "O=C(OCCCCCN(CCCOC(=O)c1c2ccccc2cc2ccccc12)CCCOc1ccc2ccc(=O)oc2c1)c1c2ccccc2cc2ccccc12", "note": "(as salt: hydrochloride) [Compound 9, 3-((5-((Anthracene-9-carbonyl)oxy)pentyl)(3-((2-oxo-2H-chromen-7-yl)oxy)propyl)amino)propyl Anthracene-9-carboxylate]", "melting point": "118 to 121"}
{"compound": "COc1cc(C(=O)OCCCCCCCN(CCCOC(=O)c2cc(OC)c(OC)c(OC)c2)CCCOc2ccc3ccc(=O)oc3c2)cc(OC)c1OC", "note": "(as salt: hydrochloride) [Compound 23, 7-((3-((2-Oxo-2H-chromen-7-yl)oxy)propyl)(3-((3,4,5-trimethoxybenzoyl)oxy)propyl)amino)heptyl 3,4,5-Trimethoxybenzoate]", "melting point": "74 to 77"}
{"compound": "COc1cc(/C=C/C(=O)OCCCN(CCCCCOC(=O)c2c3ccccc3cc3ccccc23)CCCOc2ccc3ccc(=O)oc3c2)cc(OC)c1OC", "note": "(as salt: hydrochloride) [Compound 7, (E)-5-((3-((2-Oxo-2H-chromen-7-yl)oxy)propyl)(3-((3-(3,4,5-trimethoxyphenyl)acryloyl)oxy)propyl)amino)pentyl Anthracene-9-carboxylate]", "melting point": "92 to 95"}
{"compound": "COc1cc(/C=C/C(=O)OCCCN(CCCCCCCOC(=O)c2c3ccccc3cc3ccccc23)CCCOc2ccc3ccc(=O)oc3c2)cc(OC)c1OC", "note": "(as salt: hydrochloride) [Compound 25, (E)-7-((3-((2-Oxo-2H-chromen-7-yl)oxy)propyl)(3-((3-(3,4,5-trimethoxyphenyl)acryloyl)oxy)propyl)amino)heptyl Anthracene-9-carboxylate]", "melting point": "107 to 110"}
{"compound": "COc1cc(/C=C/C(=O)OCCCCCCN(CCCOC(=O)c2c3ccccc3cc3ccccc23)CCCOc2ccc3ccc(=O)oc3c2)cc(OC)c1OC", "note": "(as salt: hydrochloride) [Compound 12, (E)-3-((3-((2-Oxo-2H-chromen-7-yl)oxy)propyl)(6-((3-(3,4,5-trimethoxyphenyl)acryloyl)oxy)hexyl)amino)propyl Anthracene-9-carboxylate]", "melting point": "99 to 102"}
